We go through 2 compounds from publication PMC4481167, “The primary pathway for lactate oxidation in Desulfovibrio vulgaris” (Frontiers in Microbiology, 2015).

The target of the test is T1, PFOR (DVU3025, por) (Nitratidesulfovibrio vulgaris, UniProt Q726T1).
T1 construct: native, untagged; in-gel activity band from crude extract identified by LC-MS/MS; homo-octamer (cited)
The experiment in a line: in-gel activity stain (methyl viologen), band identified by LC-MS/MS. Particulars: 20 mM pyruvate, 0.1 mM CoA, 2 mM methyl viologen, 16 mM dithioerythritol, 50 mM Tris-HCl pH 8.5, anaerobic. In kind it is biochemical.

T1 sequence (Q726T1 1-1215): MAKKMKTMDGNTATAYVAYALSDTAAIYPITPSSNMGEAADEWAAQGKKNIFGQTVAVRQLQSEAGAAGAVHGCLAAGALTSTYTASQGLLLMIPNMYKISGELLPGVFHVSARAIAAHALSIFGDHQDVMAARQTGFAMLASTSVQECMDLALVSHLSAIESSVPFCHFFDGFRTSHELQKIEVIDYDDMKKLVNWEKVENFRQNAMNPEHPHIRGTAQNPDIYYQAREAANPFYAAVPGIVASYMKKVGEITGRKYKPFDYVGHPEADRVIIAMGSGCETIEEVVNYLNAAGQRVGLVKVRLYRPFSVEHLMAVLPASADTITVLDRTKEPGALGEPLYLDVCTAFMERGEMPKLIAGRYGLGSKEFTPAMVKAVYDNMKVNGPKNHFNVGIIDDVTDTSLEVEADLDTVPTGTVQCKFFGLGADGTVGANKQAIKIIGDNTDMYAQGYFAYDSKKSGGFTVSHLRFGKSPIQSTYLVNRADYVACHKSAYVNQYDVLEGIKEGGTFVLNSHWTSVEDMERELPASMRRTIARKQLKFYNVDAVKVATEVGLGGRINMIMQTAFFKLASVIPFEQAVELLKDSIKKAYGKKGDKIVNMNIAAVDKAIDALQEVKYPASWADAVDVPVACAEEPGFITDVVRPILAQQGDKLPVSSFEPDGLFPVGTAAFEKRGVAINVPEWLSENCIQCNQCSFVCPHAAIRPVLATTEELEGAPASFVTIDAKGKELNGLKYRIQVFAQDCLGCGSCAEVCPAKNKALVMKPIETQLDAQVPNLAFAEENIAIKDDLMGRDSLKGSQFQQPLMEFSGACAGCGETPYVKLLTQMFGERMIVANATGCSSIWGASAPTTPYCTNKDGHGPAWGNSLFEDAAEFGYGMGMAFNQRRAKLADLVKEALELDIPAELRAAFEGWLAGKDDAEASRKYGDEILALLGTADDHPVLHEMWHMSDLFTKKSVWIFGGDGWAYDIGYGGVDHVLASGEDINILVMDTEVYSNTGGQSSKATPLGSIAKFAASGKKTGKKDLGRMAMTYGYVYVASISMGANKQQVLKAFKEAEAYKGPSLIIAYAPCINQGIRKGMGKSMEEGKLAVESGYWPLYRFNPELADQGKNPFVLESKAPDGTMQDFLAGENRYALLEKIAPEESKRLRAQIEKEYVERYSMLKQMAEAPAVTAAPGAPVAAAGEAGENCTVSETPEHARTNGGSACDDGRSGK

Turning to `CC(=O)C(=O)O` [pyruvate], the “in-gel activity stain (methyl viologen), band identified by LC-MS/MS” value is “Two bands were stained with methyl viologen in the presence of pyruvate and CoA”.

Consider `CC(C)(COP(=O)(O)OP(=O)(O)OC[C@H]1O[C@@H](n2cnc3c(N)ncnc32)[C@H](O)[C@@H]1OP(=O)(O)O)[C@@H](O)C(=O)NCCC(=O)NCCS` [CoA], for which the “in-gel activity stain (methyl viologen), band identified by LC-MS/MS” value was “Two bands were stained with methyl viologen in the presence of pyruvate and CoA”.
